According to ChEMBL document CHEMBL5291721, “A preclinical secondary pharmacology resource illuminates target-adverse drug reaction associations of marketed drugs” (Nat Commun, 2023):

How the values were obtained:
Estrogen receptor = biological target: T1, Estrogen receptor (Homo sapiens, UniProt P03372)
T1 sequence (P03372 whole entry): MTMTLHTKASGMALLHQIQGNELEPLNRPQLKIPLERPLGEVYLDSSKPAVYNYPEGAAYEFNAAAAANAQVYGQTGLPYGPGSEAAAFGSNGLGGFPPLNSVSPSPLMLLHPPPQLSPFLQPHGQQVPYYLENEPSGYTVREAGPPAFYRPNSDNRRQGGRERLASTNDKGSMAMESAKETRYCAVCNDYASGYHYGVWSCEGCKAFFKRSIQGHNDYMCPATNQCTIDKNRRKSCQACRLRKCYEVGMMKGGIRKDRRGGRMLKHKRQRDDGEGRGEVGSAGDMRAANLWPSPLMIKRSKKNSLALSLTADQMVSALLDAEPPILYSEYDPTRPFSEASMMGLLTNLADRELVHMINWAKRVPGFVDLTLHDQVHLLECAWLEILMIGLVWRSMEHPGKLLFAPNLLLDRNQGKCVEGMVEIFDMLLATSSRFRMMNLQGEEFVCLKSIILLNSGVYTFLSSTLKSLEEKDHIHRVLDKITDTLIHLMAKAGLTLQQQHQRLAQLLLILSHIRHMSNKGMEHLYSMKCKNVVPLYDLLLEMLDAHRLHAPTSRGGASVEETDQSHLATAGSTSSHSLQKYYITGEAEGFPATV

Histamine H3 receptor = Histamine H3 receptor (Homo sapiens, UniProt Q9Y5N1)
[1] = biological target: 5-hydroxytryptamine receptor 2B (Homo sapiens, UniProt P41595); assay type: functional, cell-based
Mu-type opioid receptor = Mu-type opioid receptor (Homo sapiens, UniProt P35372)
Progesterone receptor = biological target: T2, Progesterone receptor (Homo sapiens, UniProt P06401)
T2 sequence (P06401 whole entry): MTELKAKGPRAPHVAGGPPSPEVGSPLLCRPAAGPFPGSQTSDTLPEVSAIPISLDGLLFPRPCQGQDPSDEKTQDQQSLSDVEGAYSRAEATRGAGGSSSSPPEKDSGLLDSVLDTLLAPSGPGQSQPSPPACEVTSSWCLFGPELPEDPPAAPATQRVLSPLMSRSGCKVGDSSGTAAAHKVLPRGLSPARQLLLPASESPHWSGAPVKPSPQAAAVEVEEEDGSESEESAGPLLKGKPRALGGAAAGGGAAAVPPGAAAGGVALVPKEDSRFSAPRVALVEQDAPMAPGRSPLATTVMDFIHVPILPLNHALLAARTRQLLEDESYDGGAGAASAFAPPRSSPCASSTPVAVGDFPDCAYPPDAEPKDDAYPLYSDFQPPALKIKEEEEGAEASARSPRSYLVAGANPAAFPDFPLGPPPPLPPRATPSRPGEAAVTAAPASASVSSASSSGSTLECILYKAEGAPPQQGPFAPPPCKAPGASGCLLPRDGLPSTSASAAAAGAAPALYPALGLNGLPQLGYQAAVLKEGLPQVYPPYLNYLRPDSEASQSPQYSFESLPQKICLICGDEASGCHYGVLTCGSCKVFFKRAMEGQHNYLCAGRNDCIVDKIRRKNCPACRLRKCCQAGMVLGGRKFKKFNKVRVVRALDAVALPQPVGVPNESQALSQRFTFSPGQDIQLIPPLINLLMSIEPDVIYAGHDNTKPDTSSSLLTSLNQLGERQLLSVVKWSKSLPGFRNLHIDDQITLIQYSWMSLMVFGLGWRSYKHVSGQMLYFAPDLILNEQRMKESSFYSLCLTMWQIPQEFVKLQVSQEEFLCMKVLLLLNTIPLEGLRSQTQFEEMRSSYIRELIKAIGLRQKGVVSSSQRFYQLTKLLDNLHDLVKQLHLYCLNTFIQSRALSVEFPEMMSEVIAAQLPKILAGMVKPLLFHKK

[2] = biological target: Sodium-dependent dopamine transporter (Homo sapiens, UniProt Q01959)
Thromboxane A2 receptor = biological target: T3, Thromboxane A2 receptor (Homo sapiens, UniProt P21731); assay type: functional, cell-based
T3 sequence (P21731 whole entry): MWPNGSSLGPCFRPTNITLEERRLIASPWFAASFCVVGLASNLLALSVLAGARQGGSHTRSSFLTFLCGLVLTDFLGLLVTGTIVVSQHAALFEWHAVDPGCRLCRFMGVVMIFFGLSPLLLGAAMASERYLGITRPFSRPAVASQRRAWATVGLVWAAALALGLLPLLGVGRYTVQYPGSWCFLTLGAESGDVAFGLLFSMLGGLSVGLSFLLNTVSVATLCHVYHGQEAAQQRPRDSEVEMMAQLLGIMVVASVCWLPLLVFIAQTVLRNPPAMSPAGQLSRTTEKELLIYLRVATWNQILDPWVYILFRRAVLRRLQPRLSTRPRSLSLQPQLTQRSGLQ

[3] = biological target: T4, Alpha-1A adrenergic receptor (Homo sapiens, UniProt P35348); assay type: functional, cell-based
T4 sequence (P35348 whole entry): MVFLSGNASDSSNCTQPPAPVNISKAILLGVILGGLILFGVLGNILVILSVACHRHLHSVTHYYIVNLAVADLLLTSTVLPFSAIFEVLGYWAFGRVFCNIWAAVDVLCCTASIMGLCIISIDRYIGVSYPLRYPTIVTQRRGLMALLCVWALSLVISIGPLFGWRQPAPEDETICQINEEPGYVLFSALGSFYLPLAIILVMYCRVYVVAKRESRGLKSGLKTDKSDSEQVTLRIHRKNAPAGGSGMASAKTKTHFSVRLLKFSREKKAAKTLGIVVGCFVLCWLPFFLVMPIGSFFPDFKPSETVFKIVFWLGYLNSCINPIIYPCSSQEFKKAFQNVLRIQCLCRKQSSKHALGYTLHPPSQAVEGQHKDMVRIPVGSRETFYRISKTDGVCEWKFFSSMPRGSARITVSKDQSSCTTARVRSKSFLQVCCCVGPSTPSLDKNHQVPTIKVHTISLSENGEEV

[4] = biological target: T4, Alpha-1A adrenergic receptor; assay type: functional, cell-based; remark: listed apart in the source
Adenosine receptor A3 = biological target: T5, Adenosine receptor A3 (Homo sapiens, UniProt P0DMS8)
T5 sequence (P0DMS8 whole entry): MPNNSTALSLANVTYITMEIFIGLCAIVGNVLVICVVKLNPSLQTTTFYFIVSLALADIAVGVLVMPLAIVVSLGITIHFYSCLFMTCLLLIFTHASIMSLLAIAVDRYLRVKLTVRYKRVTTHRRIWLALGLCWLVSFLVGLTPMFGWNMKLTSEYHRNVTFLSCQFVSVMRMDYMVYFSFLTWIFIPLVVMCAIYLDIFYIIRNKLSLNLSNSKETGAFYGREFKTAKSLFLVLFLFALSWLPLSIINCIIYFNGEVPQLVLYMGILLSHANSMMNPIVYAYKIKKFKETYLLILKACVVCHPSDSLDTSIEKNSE
Note: assay procedure not described here.

Sodium-dependent dopamine transporter, sequence (Q01959 whole entry): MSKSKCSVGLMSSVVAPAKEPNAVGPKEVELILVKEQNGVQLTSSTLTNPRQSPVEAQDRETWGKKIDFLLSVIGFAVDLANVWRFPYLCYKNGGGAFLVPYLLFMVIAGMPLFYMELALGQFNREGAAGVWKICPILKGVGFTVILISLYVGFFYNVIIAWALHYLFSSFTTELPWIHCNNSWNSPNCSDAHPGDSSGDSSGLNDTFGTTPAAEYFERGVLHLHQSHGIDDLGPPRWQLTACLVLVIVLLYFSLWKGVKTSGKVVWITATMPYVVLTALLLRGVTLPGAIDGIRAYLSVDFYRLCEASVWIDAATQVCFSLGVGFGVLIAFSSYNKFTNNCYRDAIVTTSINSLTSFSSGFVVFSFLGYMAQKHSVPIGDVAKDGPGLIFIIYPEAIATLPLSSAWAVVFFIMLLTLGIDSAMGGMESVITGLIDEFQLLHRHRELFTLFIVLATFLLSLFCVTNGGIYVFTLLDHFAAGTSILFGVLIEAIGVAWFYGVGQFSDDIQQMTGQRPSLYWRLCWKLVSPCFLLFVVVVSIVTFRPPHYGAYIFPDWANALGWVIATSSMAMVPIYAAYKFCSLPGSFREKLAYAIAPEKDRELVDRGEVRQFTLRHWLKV
5-hydroxytryptamine receptor 2B, sequence (P41595 whole entry): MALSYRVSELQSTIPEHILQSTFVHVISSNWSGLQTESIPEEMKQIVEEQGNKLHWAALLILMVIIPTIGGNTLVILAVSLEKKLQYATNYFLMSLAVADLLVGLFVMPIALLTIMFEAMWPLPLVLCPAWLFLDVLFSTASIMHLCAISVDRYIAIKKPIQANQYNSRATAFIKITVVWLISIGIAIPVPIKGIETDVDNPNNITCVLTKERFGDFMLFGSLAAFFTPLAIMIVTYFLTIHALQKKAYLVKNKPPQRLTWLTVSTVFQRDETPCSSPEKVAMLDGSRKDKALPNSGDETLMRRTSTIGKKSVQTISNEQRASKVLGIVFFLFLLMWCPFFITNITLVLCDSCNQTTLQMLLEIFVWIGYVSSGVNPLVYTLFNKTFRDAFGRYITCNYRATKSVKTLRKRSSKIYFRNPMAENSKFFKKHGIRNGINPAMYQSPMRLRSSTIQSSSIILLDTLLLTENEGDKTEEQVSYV
Histamine H3 receptor, sequence (Q9Y5N1 whole entry): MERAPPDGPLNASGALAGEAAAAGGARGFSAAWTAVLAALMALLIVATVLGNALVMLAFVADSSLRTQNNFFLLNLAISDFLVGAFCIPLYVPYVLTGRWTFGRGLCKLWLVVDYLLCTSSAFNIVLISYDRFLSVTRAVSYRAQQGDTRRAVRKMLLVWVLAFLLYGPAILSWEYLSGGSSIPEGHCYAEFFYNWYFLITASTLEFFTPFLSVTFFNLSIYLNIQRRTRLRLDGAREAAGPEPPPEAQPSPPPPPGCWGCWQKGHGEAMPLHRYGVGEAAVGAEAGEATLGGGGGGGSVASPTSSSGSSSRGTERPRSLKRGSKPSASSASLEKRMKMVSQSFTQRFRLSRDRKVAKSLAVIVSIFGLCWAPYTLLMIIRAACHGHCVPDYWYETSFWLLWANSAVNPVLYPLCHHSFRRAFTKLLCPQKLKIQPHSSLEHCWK
Mu-type opioid receptor, sequence (P35372 whole entry): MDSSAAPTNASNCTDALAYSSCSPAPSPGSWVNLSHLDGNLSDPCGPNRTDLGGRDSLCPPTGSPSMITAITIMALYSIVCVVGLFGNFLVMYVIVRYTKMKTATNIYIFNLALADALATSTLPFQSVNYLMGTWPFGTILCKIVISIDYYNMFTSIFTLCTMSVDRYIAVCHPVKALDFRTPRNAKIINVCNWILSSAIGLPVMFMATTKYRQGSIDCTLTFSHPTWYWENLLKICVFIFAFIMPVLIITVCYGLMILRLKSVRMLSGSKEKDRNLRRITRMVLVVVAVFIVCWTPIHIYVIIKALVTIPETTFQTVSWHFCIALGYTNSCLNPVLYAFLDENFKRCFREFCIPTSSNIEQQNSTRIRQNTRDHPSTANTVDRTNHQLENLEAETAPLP

C[C@@H](O)[C@H]1C(=O)N2C(C(=O)O)=C(S[C@@H]3CN[C@H](C(=O)Nc4cccc(C(=O)O)c4)C3)[C@H](C)[C@H]12
AC50 (Estrogen receptor): 15.9 µM
AC50 (Histamine H3 receptor): > 30 µM
AC50 [1]: > 30 µM
AC50 (Mu-type opioid receptor): > 30 µM
AC50 (Progesterone receptor): > 30 µM
AC50 [2]: > 30 µM
AC50 (Thromboxane A2 receptor): > 30 µM

O=C(OOC(=O)c1ccccc1)c1ccccc1 [BENZOYL PEROXIDE]
AC50 [3]: > 30 µM
AC50 [4]: > 30 µM
AC50 (Estrogen receptor): > 30 µM
AC50 (Histamine H3 receptor): > 30 µM
AC50 [1]: > 30 µM
AC50 (Mu-type opioid receptor): > 30 µM
AC50 (Progesterone receptor): > 30 µM
AC50 [2]: > 30 µM
AC50 (Thromboxane A2 receptor): > 30 µM

CN1CCCC(CC2c3ccccc3Sc3ccccc32)C1 (configuration not stated) [METHIXENE]
AC50 (Adenosine receptor A3): > 30 µM
AC50 [3]: > 30 µM
AC50 [4]: 0.586 µM
AC50 (Estrogen receptor): > 30 µM
AC50 (Histamine H3 receptor): 20.3 µM
AC50 [1]: > 30 µM
AC50 (Mu-type opioid receptor): 13.9 µM
AC50 (Progesterone receptor): > 30 µM
AC50 [2]: > 30 µM

N=C(N)NC(=O)c1nc(Cl)c(N)nc1N [AMILORIDE]
AC50 [3]: > 30 µM
AC50 [4]: > 30 µM
AC50 (Estrogen receptor): > 30 µM
AC50 (Histamine H3 receptor): > 30 µM
AC50 [1]: > 30 µM
AC50 (Mu-type opioid receptor): > 30 µM
AC50 (Progesterone receptor): > 30 µM
AC50 [2]: > 30 µM
AC50 (Thromboxane A2 receptor): > 30 µM

COc1c(OCCCN2CCOCC2)ccc2c1N=C(NC(=O)c1cnc(N)nc1)N1CCN=C21 [COPANLISIB]
AC50 [3]: > 30 µM
AC50 [4]: > 30 µM
AC50 (Estrogen receptor): > 30 µM
AC50 (Histamine H3 receptor): > 30 µM
AC50 [1]: > 30 µM
AC50 (Mu-type opioid receptor): > 30 µM
AC50 (Progesterone receptor): > 30 µM
AC50 [2]: > 30 µM
AC50 (Thromboxane A2 receptor): > 30 µM

CC(=O)O[C@]1(C(C)=O)CC[C@H]2[C@@H]3CCC4=CC(=O)CCC4=C3[C@@H](c3ccc(N(C)C)cc3)C[C@@]21C [ULIPRISTAL ACETATE]
AC50 [3]: > 30 µM
AC50 [4]: > 30 µM
AC50 (Estrogen receptor): 9.29 µM
AC50 (Histamine H3 receptor): > 30 µM
AC50 [1]: > 30 µM
AC50 (Mu-type opioid receptor): 22.5 µM
AC50 (Progesterone receptor): 0.003 µM
AC50 [2]: > 30 µM
AC50 (Thromboxane A2 receptor): > 30 µM

CC(CN(C)C)CN1c2ccccc2CCc2ccccc21 (configuration not stated) [TRIMIPRAMINE]
AC50 (Adenosine receptor A3): > 30 µM
AC50 (Estrogen receptor): > 30 µM
AC50 (Histamine H3 receptor): > 30 µM
AC50 [1]: > 30 µM
AC50 (Mu-type opioid receptor): 5.7 µM
AC50 (Progesterone receptor): > 30 µM
AC50 [2]: 10.9 µM

OC(CN1CCCCC1)c1cc(-c2ccccc2)on1 (configuration not stated) [PERISOXAL]
AC50 (Estrogen receptor): > 30 µM
AC50 (Histamine H3 receptor): 15.8 µM
AC50 [1]: > 30 µM
AC50 (Mu-type opioid receptor): 27.4 µM
AC50 (Progesterone receptor): > 30 µM
AC50 [2]: > 30 µM
AC50 (Thromboxane A2 receptor): > 30 µM

CSCC[C@H](N)C(=O)O [METHIONINE]
AC50 (Estrogen receptor): > 30 µM
AC50 (Histamine H3 receptor): > 30 µM
AC50 [1]: > 30 µM
AC50 (Mu-type opioid receptor): > 30 µM
AC50 (Progesterone receptor): > 30 µM
AC50 [2]: > 30 µM
AC50 (Thromboxane A2 receptor): > 30 µM

COc1cc(C[C@@H]2NCCc3cc(O)c(O)cc32)cc(OC)c1OC [TRETOQUINOL]
AC50 (Adenosine receptor A3): > 30 µM
AC50 [3]: > 30 µM
AC50 [4]: > 30 µM
AC50 (Estrogen receptor): > 30 µM
AC50 (Histamine H3 receptor): > 30 µM
AC50 [1]: > 30 µM
AC50 (Mu-type opioid receptor): 15.5 µM
AC50 (Progesterone receptor): > 30 µM
AC50 [2]: > 30 µM
